According to patent publication US10570099B2, “Salts of an epidermal growth factor receptor kinase inhibitor” (Celgene CAR LLC, priority 2012, dated 2020):

Tests used:
[1] = 1 week stability of primary screen salts at 40° C./75% RH and 80° C. (open vials, XRPD); format: physicochemical
Description: (open vials). TGA was carried out after the stability studies for samples containing sufficient material.

[2] = Solvent solubility screen of amorphous hydrobromide salt; format: physicochemical
Description: Approximately 10 mg of amorphous hydrobromide salt was placed in each of 24 vials and 5 volume aliquots of the appropriate solvent system was added to the vial. Between each addition, the mixture was checked for dissolution. This procedure was continued until dissolution was observed or until 100 volumes of solvent had been added.

## C=CC(=O)Nc1cccc(Nc2nc(Nc3ccc(N4CCN(C(C)=O)CC4)cc3OC)ncc2C(F)(F)F)c1.O=S(=O)(O)c1cccc2c(S(=O)(=O)O)cccc12
[1]
  Stability 40° C./75% RH (open conditions): No form change,
  Stability 80° C. (open conditions): Possible form change,

## C=CC(=O)Nc1cccc(Nc2nc(Nc3ccc(N4CCN(C(C)=O)CC4)cc3OC)ncc2C(F)(F)F)c1.O=S(=O)(O)c1ccc2ccccc2c1
[1]
  Stability 40° C./75% RH (open conditions): No form change, small
  Stability 80° C. (open conditions): No form change,

## C=CC(=O)Nc1cccc(Nc2nc(Nc3ccc(N4CCN(C(C)=O)CC4)cc3OC)ncc2C(F)(F)F)c1.O=S(=O)(O)c1ccccc1 [Besylate (1 equiv.) Form II]
[1]
  Stability 40° C./75% RH (open conditions): No form change, some
  Stability 80° C. (open conditions): No form change, some

## C=CC(=O)Nc1cccc(Nc2nc(Nc3ccc(N4CCN(C(C)=O)CC4)cc3OC)ncc2C(F)(F)F)c1.O=S(=O)(O)c1ccccc1 [Besylate (1 equiv.) Form I]
[1]
  Stability 40° C./75% RH (open conditions): No form change,
  Stability 80° C. (open conditions): No form change,

## C=CC(=O)Nc1cccc(Nc2nc(Nc3ccc(N4CCN(C(C)=O)CC4)cc3OC)ncc2C(F)(F)F)c1.O=S(=O)(O)c1ccccc1.O=S(=O)(O)c1ccccc1 [Besylate (2 equiv.) Form II]
[1]
  Stability 40° C./75% RH (open conditions): No form change,
  Stability 80° C. (open conditions): No form change,

## C=CC(=O)Nc1cccc(Nc2nc(Nc3ccc(N4CCN(C(C)=O)CC4)cc3OC)ncc2C(F)(F)F)c1.CC1(C)C2CCC1(CS(=O)(=O)O)C(=O)C2 [Camphor-10-sulfonic acid (1 eq.) Form II]
[1]
  Stability 80° C. (open conditions): Converted to Form I,

## C=CC(=O)Nc1cccc(Nc2nc(Nc3ccc(N4CCN(C(C)=O)CC4)cc3OC)ncc2C(F)(F)F)c1.CC1(C)C2CCC1(CS(=O)(=O)O)C(=O)C2 [Camphor-10-sulfonic acid (1 eq.) Form I]
[1]
  Stability 40° C./75% RH (open conditions): No form change, slight
  Stability 80° C. (open conditions): No form change,

## C=CC(=O)Nc1cccc(Nc2nc(Nc3ccc(N4CCN(C(C)=O)CC4)cc3OC)ncc2C(F)(F)F)c1.CC1(C)C2CCC1(CS(=O)(=O)O)C(=O)C2.CC1(C)C2CCC1(CS(=O)(=O)O)C(=O)C2 [Camphor-10-sulfonic acid (2 eq.) Form I]
[1]
  Stability 40° C./75% RH (open conditions): Amorphous
  Stability 80° C. (open conditions): Amorphous

## Br.Br.C=CC(=O)Nc1cccc(Nc2nc(Nc3ccc(N4CCN(C(C)=O)CC4)cc3OC)ncc2C(F)(F)F)c1 [HBr (2 eq.) Form II]
[1]
  Stability 40° C./75% RH (open conditions): Changed to Form I,
  Stability 80° C. (open conditions): Potential new form,

## C=CC(=O)Nc1cccc(Nc2nc(Nc3ccc(N4CCN(C(C)=O)CC4)cc3OC)ncc2C(F)(F)F)c1.Cl [Hydrochloride (1 equiv.) Form I]
[1]
  Stability 40° C./75% RH (open conditions): No form change,
  Stability 80° C. (open conditions): No form change,

## C=CC(=O)Nc1cccc(Nc2nc(Nc3ccc(N4CCN(C(C)=O)CC4)cc3OC)ncc2C(F)(F)F)c1.Cl.Cl [Hydrochloride (2 equiv.) Form I]
[1]
  Stability 40° C./75% RH (open conditions): No form change,
  Stability 80° C. (open conditions): No form change,

## C=CC(=O)Nc1cccc(Nc2nc(Nc3ccc(N4CCN(C(C)=O)CC4)cc3OC)ncc2C(F)(F)F)c1.O=C(O)/C=C\C(=O)O [Maleate Form III]
[1]
  Stability 40° C./75% RH (open conditions): No clear form change
  Stability 80° C. (open conditions): No clear form change

## C=CC(=O)Nc1cccc(Nc2nc(Nc3ccc(N4CCN(C(C)=O)CC4)cc3OC)ncc2C(F)(F)F)c1.O=C(O)/C=C\C(=O)O [Maleate Form II]
[1]
  Stability 40° C./75% RH (open conditions): No form change,
  Stability 80° C. (open conditions): No form change,

## C=CC(=O)Nc1cccc(Nc2nc(Nc3ccc(N4CCN(C(C)=O)CC4)cc3OC)ncc2C(F)(F)F)c1.O=C(O)/C=C\C(=O)O [Maleate Form I]
[1]
  Stability 40° C./75% RH (open conditions): No form change,
  Stability 80° C. (open conditions): No form change,

## C=CC(=O)Nc1cccc(Nc2nc(Nc3ccc(N4CCN(C(C)=O)CC4)cc3OC)ncc2C(F)(F)F)c1.CS(=O)(=O)O.CS(=O)(=O)O [Mesylate Form I]
[1]
  Stability 40° C./75% RH (open conditions): Gum formed
  Stability 80° C. (open conditions): Amorphous solid

## C=CC(=O)Nc1cccc(Nc2nc(Nc3ccc(N4CCN(C(C)=O)CC4)cc3OC)ncc2C(F)(F)F)c1.O=S(=O)(O)c1ccc2ccccc2c1.O=S(=O)(O)c1ccc2ccccc2c1 [Naphthalene-2-sulfonic acid (2 eq.) Form III]
[1]
  Stability 40° C./75% RH (open conditions): Converted to Form II,
  Stability 80° C. (open conditions): Converted to Form II,

## C=CC(=O)Nc1cccc(Nc2nc(Nc3ccc(N4CCN(C(C)=O)CC4)cc3OC)ncc2C(F)(F)F)c1.O=S(=O)(O)c1ccc2ccccc2c1.O=S(=O)(O)c1ccc2ccccc2c1 [Naphthalene-2-sulfonic acid (2 eq.) Form II]
[1]
  Stability 40° C./75% RH (open conditions): No form change,

## C=CC(=O)Nc1cccc(Nc2nc(Nc3ccc(N4CCN(C(C)=O)CC4)cc3OC)ncc2C(F)(F)F)c1.O=S(=O)(O)c1ccc2ccccc2c1.O=S(=O)(O)c1ccc2ccccc2c1 [Naphthalene-2-sulfonic acid (2 eq.) Form IV]
[1]
  Stability 40° C./75% RH (open conditions): Converted to Form II,
  Stability 80° C. (open conditions): Converted to Form II,

## C=CC(=O)Nc1cccc(Nc2nc(Nc3ccc(N4CCN(C(C)=O)CC4)cc3OC)ncc2C(F)(F)F)c1.O=S(=O)(O)c1ccc2ccccc2c1.O=S(=O)(O)c1ccc2ccccc2c1 [Naphthalene-2-sulfonic acid (2 eq.) Form I]
[1]
  Stability 40° C./75% RH (open conditions): No form change, poor
  Stability 80° C. (open conditions): No form change, poor

## C=CC(=O)Nc1cccc(Nc2nc(Nc3ccc(N4CCN(C(C)=O)CC4)cc3OC)ncc2C(F)(F)F)c1.O=C(O)C(=O)O [Oxalate Form II]
[1]
  Stability 40° C./75% RH (open conditions): No form change,
  Stability 80° C. (open conditions): Amorphous brown

## C=CC(=O)Nc1cccc(Nc2nc(Nc3ccc(N4CCN(C(C)=O)CC4)cc3OC)ncc2C(F)(F)F)c1.O=C(O)C(=O)O [Oxalate Form I]
[1]
  Stability 40° C./75% RH (open conditions): No form change,
  Stability 80° C. (open conditions): No form change,

## C=CC(=O)Nc1cccc(Nc2nc(Nc3ccc(N4CCN(C(C)=O)CC4)cc3OC)ncc2C(F)(F)F)c1.Cc1ccc(S(=O)(=O)O)cc1 [Tosylate (1 equiv.) Form II]
[1]
  Stability 40° C./75% RH (open conditions): Gum formed
  Stability 80° C. (open conditions): Possible form change,

## C=CC(=O)Nc1cccc(Nc2nc(Nc3ccc(N4CCN(C(C)=O)CC4)cc3OC)ncc2C(F)(F)F)c1.Cc1ccc(S(=O)(=O)O)cc1 [Tosylate (1 equiv.) Form I]
[1]
  Stability 40° C./75% RH (open conditions): No form change,
  Stability 80° C. (open conditions): No form change,

## C=CC(=O)Nc1cccc(Nc2nc(Nc3ccc(N4CCN(C(C)=O)CC4)cc3OC)ncc2C(F)(F)F)c1.Cc1ccc(S(=O)(=O)O)cc1.Cc1ccc(S(=O)(=O)O)cc1 [Tosylate (2 equiv.) Form II]
[1]
  Stability 40° C./75% RH (open conditions): Gum formed
  Stability 80° C. (open conditions): Possible form change,

## C=CC(=O)Nc1cccc(Nc2nc(Nc3ccc(N4CCN(C(C)=O)CC4)cc3OC)ncc2C(F)(F)F)c1.Cc1ccc(S(=O)(=O)O)cc1.Cc1ccc(S(=O)(=O)O)cc1 [Tosylate (2 equiv.) Form I]
[1]
  Stability 40° C./75% RH (open conditions): No form change,
  Stability 80° C. (open conditions): No form change,

## Br.C=CC(=O)Nc1cccc(Nc2nc(Nc3ccc(N4CCN(C(C)=O)CC4)cc3OC)ncc2C(F)(F)F)c1 [amorphous hydrobromide salt]
[2]; 1,4-Dioxane
  Approximate Solubility: <10000 µg/mL
[2]; 1-Butanol
  Approximate Solubility: <10000 µg/mL
[2]; 2-Propanol
  Approximate Solubility: <10000 µg/mL
[2]; 3-Methyl-1-butanol
  Approximate Solubility: <10000 µg/mL
[2]; Acetone
  Approximate Solubility: <10000 µg/mL
[2]; Acetone:Water (10%)
  Approximate Solubility: <10000 µg/mL
[2]; Acetonitrile
  Approximate Solubility: <10000 µg/mL
[2]; Cyclohexane
  Approximate Solubility: <10000 µg/mL
[2]; Dichloromethane
  Approximate Solubility: <10000 µg/mL
[2]; Diisopropyl ether
  Approximate Solubility: <10000 µg/mL
[2]; Dimethylformamide
  Approximate Solubility: ca. 67 mg/mL
[2]; Dimethylsulfoxide
  Approximate Solubility: ca. 50 mg/mL
[2]; Ethanol
  Approximate Solubility: <10000 µg/mL
[2]; Ethyl acetate
  Approximate Solubility: <10000 µg/mL
[2]; Heptane
  Approximate Solubility: <10000 µg/mL
[2]; Isopropyl acetate
  Approximate Solubility: <10000 µg/mL
[2]; Methyl isobutyl ketone
  Approximate Solubility: <10000 µg/mL
[2]; Methylethyl ketone
  Approximate Solubility: <10000 µg/mL
[2]; N-Methyl-2-pyrrolidone
  Approximate Solubility: ca. 20 mg/mL
[2]; Nitromethane
  Approximate Solubility: <10000 µg/mL
[2]; Tetrahydrofuran
  Approximate Solubility: <10000 µg/mL
[2]; Toluene
  Approximate Solubility: <10000 µg/mL
[2]; Water
  Approximate Solubility: <10000 µg/mL
[2]; tert-Butylmethyl ether
  Approximate Solubility: <10000 µg/mL
